Reference: article PMC8496750, “Identification of the organic anion transporting polypeptides responsible for the hepatic uptake of the major metabolite of epyrifenacil, S‐3100‐CA, in mice” (Pharmacology Research & Perspectives, 2021)

Columns and labels:
human OATP1B1 = target: T1, human OATP1B1 (Homo sapiens, UniProt Q9Y6L6); test: Inhibition of S‐3100‐CA uptake by OATP inhibitors, human OATP1B1; format: in vitro ADME; conditions: inhibitor at 100 μM
T1 construct: expressed in transfected cells; host or cells: 293FT cells
T1 sequence (Q9Y6L6 1-691): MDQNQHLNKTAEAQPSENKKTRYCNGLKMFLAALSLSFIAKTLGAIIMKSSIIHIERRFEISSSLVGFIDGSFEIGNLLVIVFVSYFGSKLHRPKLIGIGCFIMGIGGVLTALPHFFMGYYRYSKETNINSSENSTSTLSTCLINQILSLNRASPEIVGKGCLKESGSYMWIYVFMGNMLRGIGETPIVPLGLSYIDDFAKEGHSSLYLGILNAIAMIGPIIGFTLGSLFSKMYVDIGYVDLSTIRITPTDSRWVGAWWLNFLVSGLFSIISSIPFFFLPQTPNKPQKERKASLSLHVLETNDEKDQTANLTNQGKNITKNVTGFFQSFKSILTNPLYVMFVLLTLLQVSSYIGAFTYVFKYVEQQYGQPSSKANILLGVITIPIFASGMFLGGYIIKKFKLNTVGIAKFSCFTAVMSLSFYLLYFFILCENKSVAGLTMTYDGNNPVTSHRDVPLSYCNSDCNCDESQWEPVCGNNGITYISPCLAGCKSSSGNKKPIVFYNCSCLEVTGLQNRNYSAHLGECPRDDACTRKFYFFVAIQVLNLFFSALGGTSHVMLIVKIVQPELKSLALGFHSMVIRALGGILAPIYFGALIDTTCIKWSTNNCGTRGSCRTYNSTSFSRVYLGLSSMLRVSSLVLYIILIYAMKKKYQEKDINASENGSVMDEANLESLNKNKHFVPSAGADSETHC
Procedure: 293FT cells were purchased from Thermo Fisher Scientific, Inc.. The cells were grown in Dulbecco's modified Eagle medium (supplemented with 4.5 g/L glucose and 2 mM L‐glutamine) at 37°C, 5% CO2, and 95% humidity. The cells were passaged 3 times per week by harvesting cells using trypsin and plating at a density of 1.0 × 10^4 cells/cm^2 in a 10 cm cell culture plate for maintenance culture. The 293FT cells were detached using trypsin and re‐seeded at a density of 2.5 × 10^4 cells/cm^2 in BioCoat™ Collagen I 6‐well plates (Corning Inc.) for transfection and then treated with 1.2 μg of plasmid vector and 3.2 μl of Lipofectamine™ 2000 Transfection Reagent (Thermo Fisher Scientific, Inc.) according to the manufacturer's instructions. After a 3‐h treatment, the transfection medium was replaced with a fresh cell culture medium and incubated at 37°C with 95% humidity and 5% CO2 until ready for the assay.
Transport experiments were conducted approximately 24 h post‐transfection. […] From the lysate, 1.0 ml was transferred to a vial containing 10 ml of Emulsifier Scintillator Plus to measure the radioactivity in the LSC. The protein concentration of the cell lysate was also measured using a Pierce™ BCA Protein Assay Kit (Thermo Fisher Scientific, Inc.), which was used to normalize, according to the cell number, the radioactivity in the cell lysate extract. […]

mouse Oatp1a1 = target: T2, mouse Oatp1a1 (Mus musculus, UniProt Q9QXZ6); conditions: inhibitor at 100 μM
T2 sequence (Q9QXZ6 1-670): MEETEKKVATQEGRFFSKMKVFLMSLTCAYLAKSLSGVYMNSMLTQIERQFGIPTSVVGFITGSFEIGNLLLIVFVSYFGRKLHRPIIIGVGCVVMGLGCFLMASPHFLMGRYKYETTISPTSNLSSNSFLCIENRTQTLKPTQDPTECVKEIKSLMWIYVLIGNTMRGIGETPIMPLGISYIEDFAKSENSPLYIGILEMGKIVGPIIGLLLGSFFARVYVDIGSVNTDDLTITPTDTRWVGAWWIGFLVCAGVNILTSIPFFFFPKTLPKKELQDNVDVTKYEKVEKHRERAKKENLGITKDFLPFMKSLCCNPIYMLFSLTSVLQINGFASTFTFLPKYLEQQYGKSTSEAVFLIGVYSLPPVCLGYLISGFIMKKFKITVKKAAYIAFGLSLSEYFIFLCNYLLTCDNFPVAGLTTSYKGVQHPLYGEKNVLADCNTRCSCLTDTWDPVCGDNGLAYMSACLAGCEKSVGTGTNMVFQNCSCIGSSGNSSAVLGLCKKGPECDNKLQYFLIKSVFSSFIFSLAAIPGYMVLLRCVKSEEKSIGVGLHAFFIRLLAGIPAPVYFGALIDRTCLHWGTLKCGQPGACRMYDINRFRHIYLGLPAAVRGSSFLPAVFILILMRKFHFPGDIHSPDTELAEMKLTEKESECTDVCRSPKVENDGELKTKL
Procedure: Transport experiments were conducted approximately 24 h post‐transfection. The experiments were initiated by aspirating culture medium and addition of pre‐warmed radiolabeled substrate solution (final 1.0% of acetonitrile or 0.9% of ethanol in phosphate‐buffered saline (PBS[−])) to each well. After a 10‐min incubation, cells were washed twice with 1 ml of ice‐cold PBS(−) and lysed with 700 μl of 1.0 M NaOH for 3 h or more at room temperature. The lysate was transferred to a 1.5‐ml tube, and neutralized with 350 μl of 2.0 M HCl and 350 μl of 2.0% sodium dodecyl sulfate (SDS) solution. From the lysate, 1.0 ml was transferred to a vial containing 10 ml of Emulsifier Scintillator Plus to measure the radioactivity in the LSC. The protein concentration of the cell lysate was also measured using a Pierce™ BCA Protein Assay Kit (Thermo Fisher Scientific, Inc.), which was used to normalize, according to the cell number, the radioactivity in the cell lysate extract. The protein assay was performed in duplicate. Each sample type was assayed in triplicate wells, and each run was performed twice. […] Each sample type was assayed in triplicate wells.

## CO[C@H]1/C=C/O[C@@]2(C)Oc3c(C)c(O)c4c(O)c(c(/C=N/N5CCN(C)CC5)c(O)c4c3C2=O)NC(=O)/C(C)=C\C=C\[C@H](C)[C@H](O)[C@@H](C)[C@@H](O)[C@@H](C)[C@H](OC(C)=O)[C@@H]1C [RIF, Rifampicin]
Human OATP1B1
  Uptake of S‐3100‐CA, % of that by vehicle‐treated cells: less than 40%
Mouse Oatp1a1
  Uptake of S‐3100‐CA, % of that by vehicle‐treated cells: less than 40%
